Experimental data: patent US11000033B2, “Ketone or oxime compound, and herbicide” (NISSAN CHEMICAL CORPORATION, priority 2014, dated 2021)

Key:
[1] = system: Echinochloa crus-galli var. crus-galli; assay: Test Example 5: herbicidal effect by foliage application, plastic box (symbol H); type: in vivo; settings: 320 g/ha, 3 weeks after application
Method in brief: (§1)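 Emulsion formulation, diluted with water to the intended rate, was applied uniformly to leaves by small sprayer. Recipients were 14-day greenhouse-grown seedlings (25° C. to 30° C.). Assessment followed at 3 weeks.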

Digitaria ciliaris = assay: Test Example 5: herbicidal effect by foliage application, plastic box (symbol F); type: in vivo; settings: 320 g/ha, 3 weeks after application
Method in brief: as §1

Row | melting point [°C] | SMILES | H: Echinochloa crus-galli var. crus-galli, herbicidal effect (criteria of Test Example 1) [1] | F: Digitaria ciliaris, herbicidal effect (criteria of Test Example 1) (Digitaria ciliaris) | H: Echinochloa crus-galli var. crus-galli, herbicidal effect grade [1] | F: Digitaria ciliaris, herbicidal effect grade (Digitaria ciliaris)
1 | 167 to 170 | CON=C(C)CC1CC(O)=C(c2c(C)cccc2C)C1=O (stereo not drawn) [6-112] | 5 (Herbicidal ratio of 90% or more (almost completely withered)) | 5 (Herbicidal ratio of 90% or more (almost completely withered)) |  | 
2 | 157 to 159 | CON=C(C)CC1CC(O)=C(c2c(F)cc(Br)cc2OC)C1=O (stereo not drawn) [6-096] |  |  |  | 
3 | 141 to 143 | CON=C(C)CC1CC(O)=C(c2c(C)cc(OC)cc2C)C1=O (stereo not drawn) [6-055] | 5 (Herbicidal ratio of 90% or more (almost completely withered)) | 5 (Herbicidal ratio of 90% or more (almost completely withered)) |  | 
4 | 171 to 175 | CON=C(C)CC1CC(O)=C(c2c(OC)cc(C)cc2OC)C1=O (stereo not drawn) [6-103] | 5 (Herbicidal ratio of 90% or more (almost completely withered)) | 5 (Herbicidal ratio of 90% or more (almost completely withered)) |  | 
5 | 175 to 177 | CON=C(C)CC1CC(O)=C(c2c(F)cc(-c3ccccc3)cc2OC)C1=O (stereo not drawn) [6-107] | 5 (Herbicidal ratio of 90% or more (almost completely withered)) | 5 (Herbicidal ratio of 90% or more (almost completely withered)) |  | 
6 | 150 to 153 | CON=C(C)CC1CC(O)=C(c2c(C)cc(Br)cc2OC)C1=O (stereo not drawn) [6-076, 2-(4-bromo-2-methoxy-6-methylphenyl)-3-hydroxy-5-{2-(methoxyimino)propyl}cyclopent-2-enone] | 5 (Herbicidal ratio of 90% or more (almost completely withered)) | 5 (Herbicidal ratio of 90% or more (almost completely withered)) |  | 
7 | 175 to 177 | CON=C(C)CC1CC(O)=C(c2c(C)cc(-c3ccccc3)cc2OC)C1=O (stereo not drawn) [6-099] | 5 (Herbicidal ratio of 90% or more (almost completely withered)) | 5 (Herbicidal ratio of 90% or more (almost completely withered)) |  | 
8 |  | CCc1cc(-c2ccc(Cl)cc2)cc(C)c1C1=C(OC(=O)N2CCOCC2)CC(CC(C)=NOC)C1=O (mixture of isomers) [6-064] | 5 (Herbicidal ratio of 90% or more (almost completely withered)) | 5 (Herbicidal ratio of 90% or more (almost completely withered)) |  | 
9 |  | CCc1cc(Br)cc(C)c1C1=C(O)CC(CC(C)=O)C1=O (stereo not drawn) [7-003] | 5 (Herbicidal ratio of 90% or more (almost completely withered)) | 5 (Herbicidal ratio of 90% or more (almost completely withered)) |  | 
10 |  | CON=C(C)CC1CC(O)=C(c2c(C)cc(Oc3ccccc3)cc2C)C1=O (stereo not drawn) [6-052] |  |  | 5 (Herbicidal ratio of 90% or more (almost completely withered)) | 5 (Herbicidal ratio of 90% or more (almost completely withered))
11 |  | CON=C(C)CC1CC(OC(=O)N(C)C)=C(c2c(C)cc(-c3ccc(Cl)cc3)cc2C)C1=O (mixture of isomers) [6-063] | 5 (Herbicidal ratio of 90% or more (almost completely withered)) | 5 (Herbicidal ratio of 90% or more (almost completely withered)) |  | 
12 |  | CON=C(C)CC1CC(O)=C(c2c(C)cc(-n3cncn3)cc2C)C1=O (stereo not drawn) [6-074] | 3 (Herbicidal ratio of 40% or higher and lower than 70%) | 0 (Herbicidal ratio of 5% or lower (almost no effect)) |  | 
13 |  | CC(=O)CC1CC(O)=C(c2c(C)cc(-c3ccccn3)cc2C)C1=O (stereo not drawn) [7-012] | 5 (Herbicidal ratio of 90% or more (almost completely withered)) | 5 (Herbicidal ratio of 90% or more (almost completely withered)) |  | 
14 | 170 to 178 | CON=C(C)CC1CC(O)=C(c2c(C)cc(C3CC3)cc2C)C1=O (stereo not drawn) [6-050] |  |  | 4 (Herbicidal ratio of 70% or higher and lower than 90%) | 4 (Herbicidal ratio of 70% or higher and lower than 90%)
15 |  | CON=C(C)CC1CC(O)=C(c2c(C)cc(-c3cc(Cl)cc(Cl)c3)cc2C)C1=O (stereo not drawn) [6-087] | 5 (Herbicidal ratio of 90% or more (almost completely withered)) | 5 (Herbicidal ratio of 90% or more (almost completely withered)) |  | 
